Test results: publication PMC9596375 (2022)

Assays:
[1] = test system: X2B2 (RNA, aptamer) GGAUACACAAGAGCGAUUGAAACUAAGUCUGUGUAUCC; test: ITC; conditions: 20 mM MgCl2; 10 mM Tris-HCl pH 7.5, 30 °C
[2] = test system: X2B2-C14U (RNA, aptamer) GGAUACACAAGAGUGAUUGAAACUAAGUCUGUGUAUCC; test: ITC; conditions: 20 mM MgCl2; 10 mM Tris-HCl pH 7.5, 30 °C
[3] = test system: X2B2-C14U-dG13 (RNA, aptamer, 2'-deoxy at G13) GGAUACACAAGAGUGAUUGAAACUAAGUCUGUGUAUCC; test: UV-Vis absorbance shift; conditions: 30 mM MgCl2, 140 mM KCl, 10 mM NaCl; 50 mM Tris pH 7.0; ∆λmax 10
[4] = test system: X2B2-C14U-dU18 (RNA, aptamer, 2'-deoxy at U18) GGAUACACAAGAGUGAUUGAAACUAAGUCUGUGUAUCC; test: UV-Vis absorbance shift; conditions: 30 mM MgCl2, 140 mM KCl, 10 mM NaCl; 50 mM Tris pH 7.0; ∆λmax 7
[5] = test system: X2B2-C14U-dG13-dU18 (RNA, aptamer, 2'-deoxy at G13 and U18) GGAUACACAAGAGUGAUUGAAACUAAGUCUGUGUAUCC; test: UV-Vis absorbance shift; conditions: 30 mM MgCl2, 140 mM KCl, 10 mM NaCl; 50 mM Tris pH 7.0; ∆λmax 7
[6] = test system: X2B2-C4 (RNA, aptamer) GGAUAGCCAAGAGCGAUUGAAACUAAGUCUGGCUAUCC; test: UV-Vis absorbance shift; conditions: 30 mM MgCl2, 140 mM KCl, 10 mM NaCl; 50 mM Tris pH 7.0; 40 µM RNA, 40 µM FAD; ∆λmax 7
[7] = test system: X2B2-D4 (RNA, aptamer) GGAUAGCCAAGAGCGAUUGAAACUAAGUCUGUGUAUCC; test: UV-Vis absorbance shift; conditions: 30 mM MgCl2, 140 mM KCl, 10 mM NaCl; 50 mM Tris pH 7.0; 40 µM RNA, 40 µM FAD; ∆λmax 6
[8] = test system: X2B2-A22U (RNA, aptamer) GGAUACACAAGAGCGAUUGAAUCUAAGUCUGUGUAUCC; test: UV-Vis absorbance shift; conditions: 30 mM MgCl2, 140 mM KCl, 10 mM NaCl; 50 mM Tris pH 7.0; 40 µM RNA, 40 µM FAD; ∆λmax 2
[9] = test system: X2B2-G13U (RNA, aptamer) GGAUACACAAGAUCGAUUGAAACUAAGUCUGUGUAUCC; test: UV-Vis absorbance shift; conditions: 30 mM MgCl2, 140 mM KCl, 10 mM NaCl; 50 mM Tris pH 7.0; 40 µM RNA, 40 µM FAD; ∆λmax 1
[10] = test system: X2B2-A10U (RNA, aptamer) GGAUACACAUGAGCGAUUGAAACUAAGUCUGUGUAUCC; test: UV-Vis absorbance shift; conditions: 30 mM MgCl2, 140 mM KCl, 10 mM NaCl; 50 mM Tris pH 7.0; 40 µM RNA, 40 µM FAD; ∆λmax 5
[11] = test system: X2B2-C3 (RNA, aptamer) GGAUACAGUAGAGCGAUUGAAACUAAGUCACUGUAUCC; test: UV-Vis absorbance shift; conditions: 30 mM MgCl2, 140 mM KCl, 10 mM NaCl; 50 mM Tris pH 7.0; 40 µM RNA, 40 µM FAD; ∆λmax 5
[12] = test system: X2B2-C14U-U24A (RNA, aptamer) GGAUACACAAGAGUGAUUGAAACAAAGUCUGUGUAUCC; test: UV-Vis absorbance shift; conditions: 30 mM MgCl2, 140 mM KCl, 10 mM NaCl; 50 mM Tris pH 7.0; 40 µM RNA, 40 µM FAD; ∆λmax 1
[13] = test system: X2B2-D1 (RNA, aptamer) GGAUACACAAGAGCGAACGAAACUAAGUCUGUGUAUCC; test: UV-Vis absorbance shift; conditions: 30 mM MgCl2, 140 mM KCl, 10 mM NaCl; 50 mM Tris pH 7.0; 40 µM RNA, 40 µM FAD; ∆λmax 1
[14] = test system: X2B2-C14U-BT1 (RNA, aptamer) GGAUACAAACGAGUGAUUGAAACUAAGUCGUUGUAUCC; test: UV-Vis absorbance shift; conditions: 30 mM MgCl2, 140 mM KCl, 10 mM NaCl; 50 mM Tris pH 7.0; 40 µM RNA, 40 µM FAD; ∆λmax 9
[15] = test system: X2B2-ΔA9 (RNA, aptamer) GGAUACACAGAGCGAUUGAAACUAAGUCUGUGUAUCC; test: UV-Vis absorbance shift; conditions: 30 mM MgCl2, 140 mM KCl, 10 mM NaCl; 50 mM Tris pH 7.0; 40 µM RNA, 40 µM FAD; ∆λmax 2
[16] = test system: X2B2-ΔC14 (RNA, aptamer) GGAUACACAAGAGGAUUGAAACUAAGUCUGUGUAUCC; test: UV-Vis absorbance shift; conditions: 30 mM MgCl2, 140 mM KCl, 10 mM NaCl; 50 mM Tris pH 7.0; 40 µM RNA, 40 µM FAD; ∆λmax 1
[17] = test system: X2B2-A25U (RNA, aptamer) GGAUACACAAGAGCGAUUGAAACUUAGUCUGUGUAUCC; test: UV-Vis absorbance shift; conditions: 30 mM MgCl2, 140 mM KCl, 10 mM NaCl; 50 mM Tris pH 7.0; 40 µM RNA, 40 µM FAD; ∆λmax 2
[18] = test system: X2B2-C14G (RNA, aptamer) GGAUACACAAGAGGGAUUGAAACUAAGUCUGUGUAUCC; test: UV-Vis absorbance shift; conditions: 30 mM MgCl2, 140 mM KCl, 10 mM NaCl; 50 mM Tris pH 7.0; 40 µM RNA, 40 µM FAD; ∆λmax 2
[19] = test system: X2B2-A20U (RNA, aptamer) GGAUACACAAGAGCGAUUGUAACUAAGUCUGUGUAUCC; test: UV-Vis absorbance shift; conditions: 30 mM MgCl2, 140 mM KCl, 10 mM NaCl; 50 mM Tris pH 7.0; 40 µM RNA, 40 µM FAD; ∆λmax 0
[20] = test system: X2B2-D2 (RNA, aptamer) GGAUACACAAGAGCACUUGAAACUAAGUCUGUGUAUCC; test: UV-Vis absorbance shift; conditions: 30 mM MgCl2, 140 mM KCl, 10 mM NaCl; 50 mM Tris pH 7.0; 40 µM RNA, 40 µM FAD; ∆λmax 4
[21] = test system: X2B2-U24A (RNA, aptamer) GGAUACACAAGAGCGAUUGAAACAAAGUCUGUGUAUCC; test: UV-Vis absorbance shift; conditions: 30 mM MgCl2, 140 mM KCl, 10 mM NaCl; 50 mM Tris pH 7.0; 40 µM RNA, 40 µM FAD; ∆λmax 6
[22] = test system: X2B2-BT1 (RNA, aptamer) GGAUACAAACGAGCGAUUGAAACUAAGUCGUUGUAUCC; test: UV-Vis absorbance shift; conditions: 30 mM MgCl2, 140 mM KCl, 10 mM NaCl; 50 mM Tris pH 7.0; 40 µM RNA, 40 µM FAD; ∆λmax 5
[23] = test system: X2B2-G11U (RNA, aptamer) GGAUACACAAUAGCGAUUGAAACUAAGUCUGUGUAUCC; test: UV-Vis absorbance shift; conditions: 30 mM MgCl2, 140 mM KCl, 10 mM NaCl; 50 mM Tris pH 7.0; 40 µM RNA, 40 µM FAD; ∆λmax 0
[24] = test system: Neg (RNA, other) GGAACUGCGAUCUAGUGAGACUGACUCGUGAUCGGA; test: UV-Vis absorbance shift; conditions: 30 mM MgCl2, 140 mM KCl, 10 mM NaCl; 50 mM Tris pH 7.0
[25] = test system: X2B2-C14A (RNA, aptamer) GGAUACACAAGAGAGAUUGAAACUAAGUCUGUGUAUCC; test: UV-Vis absorbance shift; conditions: 30 mM MgCl2, 140 mM KCl, 10 mM NaCl; 50 mM Tris pH 7.0; 40 µM RNA, 40 µM FAD; ∆λmax 5
[26] = test system: X2B2-G19U (RNA, aptamer) GGAUACACAAGAGCGAUUUAAACUAAGUCUGUGUAUCC; test: UV-Vis absorbance shift; conditions: 30 mM MgCl2, 140 mM KCl, 10 mM NaCl; 50 mM Tris pH 7.0; 40 µM RNA, 40 µM FAD; ∆λmax 2
[27] = test system: 12.8 (RNA, aptamer) GGGAAAAGCGAAUCAUACACAAGAGUGUGACGCACUUUAUGAUCGGAGGCCGUCAUUGUAUGGCGUGGGCAUAAGGUAUUUAAUUCCAUA; test: in-line probing; conditions: 30 mM MgCl2; 25 mM Tris pH 8.0, 37 °C, 18 h; 500 µM FAD
[28] = test system: X2B2-C23U (RNA, aptamer) GGAUACACAAGAGCGAUUGAAAUUAAGUCUGUGUAUCC; test: UV-Vis absorbance shift; conditions: 30 mM MgCl2, 140 mM KCl, 10 mM NaCl; 50 mM Tris pH 7.0; 40 µM RNA, 40 µM FAD; ∆λmax 2
[29] = test system: 12.29 (RNA, aptamer) GGGAAAAGCGAAUCAUACACAAGAGCGAUUGAAACUAAGUCUGUGCUAUGUUCGUUAUCGCCGGUGGGGCAUAAGGUAUUUAAUUCCAUA; test: in-line probing; conditions: 30 mM MgCl2; 25 mM Tris pH 8.0, 37 °C, 18 h; 500 µM FAD
[30] = test system: X2B2-A12U (RNA, aptamer) GGAUACACAAGUGCGAUUGAAACUAAGUCUGUGUAUCC; test: UV-Vis absorbance shift; conditions: 30 mM MgCl2, 140 mM KCl, 10 mM NaCl; 50 mM Tris pH 7.0; 40 µM RNA, 40 µM FAD; ∆λmax 0
[31] = test system: X2B2-C14U-ΔA9 (RNA, aptamer) GGAUACACAGAGUGAUUGAAACUAAGUCUGUGUAUCC; test: UV-Vis absorbance shift; conditions: 30 mM MgCl2, 140 mM KCl, 10 mM NaCl; 50 mM Tris pH 7.0; 40 µM RNA, 40 µM FAD; ∆λmax 8
[32] = test system: X2B2-C1 (RNA, aptamer) GGAUACACAAGAGCGAACGAAACUAGUUCUGUGUAUCC; test: UV-Vis absorbance shift; conditions: 30 mM MgCl2, 140 mM KCl, 10 mM NaCl; 50 mM Tris pH 7.0; 40 µM RNA, 40 µM FAD; ∆λmax 0
[33] = test system: X2B2-A21U (RNA, aptamer) GGAUACACAAGAGCGAUUGAUACUAAGUCUGUGUAUCC; test: UV-Vis absorbance shift; conditions: 30 mM MgCl2, 140 mM KCl, 10 mM NaCl; 50 mM Tris pH 7.0; 40 µM RNA, 40 µM FAD; ∆λmax 1
[34] = test system: X2B2-D3 (RNA, aptamer) GGAUACAGUAGAGCGAUUGAAACUAAGUCUGUGUAUCC; test: UV-Vis absorbance shift; conditions: 30 mM MgCl2, 140 mM KCl, 10 mM NaCl; 50 mM Tris pH 7.0; 40 µM RNA, 40 µM FAD; ∆λmax 5

`Cc1cc2nc3c(=O)[nH]c(=O)nc-3n(C[C@H](O)[C@H](O)[C@H](O)CO)c2cc1C` showed a Kd [1] of 5.333 ± 0.722 µM and a Kd [2] of 0.885 ± 0.085 µM.
With `Cc1cc2nc3c(=O)[nH]c(=O)nc-3n(C[C@H](O)[C@H](O)[C@H](O)COP(=O)(O)O)c2cc1C` the binding [3] was “yes”, the binding [4] was “yes” and the Kd [1] was 1.414 ± 0.097 µM. The Kd [2] was 0.243 ± 0.028 µM and the binding [5] was “yes”.
In the case of `Cc1cc2nc3c(=O)[nH]c(=O)nc-3n(C[C@H](O)[C@H](O)[C@H](O)COP(=O)(O)OP(=O)(O)OC[C@H]3O[C@@H](n4cnc5c(N)ncnc54)[C@H](O)[C@@H]3O)c2cc1C`, the binding [6] is reported as “yes”, the binding [7] is reported as “yes” and the binding [8] is reported as “weak”. For the same molecule, the binding [9] was “no”, the binding [10] was “yes” and the binding [11] was “yes”. For the same molecule, the binding [12] was “no”, the binding [13] was “no” and the binding [14] was “yes”. For the same molecule, the binding [15] was “weak”, the binding [16] was “no” and the binding [17] was “weak”. The binding [18] was “weak”, the binding [19] was “no” and the binding [20] was “weak”. The binding [21] was “yes”, the binding [22] was “weak” and the Kd [1] was 7.244 ± 0.398 µM. The binding [23] was “no”, the binding [24] was “no” and the binding [25] was “weak”. For the same molecule, the binding [26] was “weak”, the Kd [2] was 0.818 ± 0.032 µM and the binding [27] was “yes”. For the same molecule, the binding [28] was “weak”, the binding [29] was “yes” and the binding [30] was “no”. For the same molecule, the binding [31] was “yes”, the binding [32] was “no” and the binding [33] was “no”. For the same molecule, the binding [34] was “yes”.
